Experiments:
[1] = system: HpoR (HpoRMS) (Mycobacterium smegmatis mc2 155); assay: SPR
HpoR (Ms5860) = molecular target: T1, HpoR (Ms5860) (Mycolicibacterium smegmatis, UniProt A0R4J9); assay: isothermal titration calorimetry; format: binding
T1 sequence (A0R4J9 1-199): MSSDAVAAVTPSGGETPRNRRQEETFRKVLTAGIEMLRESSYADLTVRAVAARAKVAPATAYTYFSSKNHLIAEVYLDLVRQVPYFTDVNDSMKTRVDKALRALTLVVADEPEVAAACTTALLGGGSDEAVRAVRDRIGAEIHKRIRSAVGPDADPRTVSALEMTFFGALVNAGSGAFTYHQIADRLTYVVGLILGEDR

[2] = molecular target: Mtb HpoR (Rv0767c); HpoRMtb (Mycobacterium tuberculosis, UniProt P9WMD7)
Chain of Mtb HpoR (Rv0767c); HpoRMtb (P9WMD7 whole entry): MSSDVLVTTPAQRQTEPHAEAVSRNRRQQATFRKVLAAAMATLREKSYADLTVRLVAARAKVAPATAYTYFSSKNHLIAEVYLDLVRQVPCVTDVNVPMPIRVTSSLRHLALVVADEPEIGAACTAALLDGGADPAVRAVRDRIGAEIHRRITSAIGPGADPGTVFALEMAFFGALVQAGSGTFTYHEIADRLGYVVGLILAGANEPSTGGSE

Row | Compound | binding signal [1] [RU] | Kd (HpoR (Ms5860)) [nM] | UV cross-linking with radiolabelled ligand, SDS-PAGE autoradiography [2]
1 | Ms5860p, biotin-labeled | 150 |  | 
2 | Nc1nc2c(ncn2[C@@H]2O[C@@H]3COP(=O)(O)O[C@H]4[C@@H](O)[C@H](n5cnc6c(=O)[nH]c(N)nc65)O[C@@H]4COP(=O)(O)O[C@H]3[C@H]2O)c(=O)[nH]1 [c-di-GMP] |  | 1780 ± 230 | Mtb HpoR (Rv0767c) showed a good binding ability for c-di-GMP

Source: article PMC5909442 (Nucleic Acids Research, 2018)
